{"source": "paper PMC4979471", "about": "(Cell Death Discovery, 2015)", "key": {"[1]": {"assay": "Pharmacokinetic profile after i.p. administration", "format": "in vivo, C57BL/6 mice", "details": "i.p., mice", "procedure": "Briefly, pharmacokinetic studies were conducted using n=3 animals per group for each compound. […] Blood samples were obtained at various time points following intraperitoneal injection and diluted 1 : 1 with water prior to storage at −80 °C.\nPrior to bioanalysis, samples were thawed and each analyte was isolated using a method based on protein precipitation. The resulting supernatant was injected into an LC/MS/MS system optimized for detection of the compound of interest. Data were reported as quantitative drug concentrations as determined by standard calibration curve analysis. Using these optimized conditions, the typical lower limit of quantitation achieved was 1.00 ng/ml for both compounds."}, "BMDM [2]": {"tested_on": "BMDM", "assay": "TNF+cycloheximide-stimulated apoptosis (cell viability, Caspase 3/7)", "format": "cell-based, mouse", "details": "100 nM", "procedure": "Caspase 3/7 activity was measured at 6 h using the Caspase-Glo 3/7 assay (Promega)."}, "BMDM [3]": {"tested_on": "BMDM", "assay": "TNF-induced NFκB activation (IκB phosphorylation and degradation, Western blot)", "format": "cell-based, mouse", "details": "100 nM", "from_the_text": "Lysates prepared in 1× Cell Lysis Buffer (Cell Signaling, Danvers, MA, USA) containing protease and phosphatase inhibitors were separated on 4–12% SDS-PAGE and blotted onto nitrocellulose membrane (Invitrogen, Waltham, MA, USA). Blots were probed for IκB (9242, Cell Signaling), phospho-IκB (2859, Cell Signaling), and tubulin as a loading control."}, "human and murine cells": {"tested_on": "human and murine cells", "assay": "RIP1-dependent cell death, summary statements", "format": "cell-based", "details": "read-out: IC50 inhibiting RIP1-dependent cell death", "procedure": "(§1) Necroptotic cell death was induced in BMDM, L929 and U937 cells with TNF in the presence of caspase inhibitor zVAD-FMK or QVD-Oph (BMDM: 50 ng/ml TNF+50 μM zVAD; L929: 100 ng/ml TNF+50 μM QVD; U937: 100 ng/ml TNF+25 μM QVD). To evaluate the effect of RIP1 inhibitors, cells were pretreated with compound (dose–response) for 30 min. Induced cell death was evaluated 19–21 h later by measuring cellular ATP levels using CellTiter-Glo Luminescent Cell Viability assay (Promega, Fitchburg, WI, USA). To induce necroptosis in neutrophils, freshly isolated human neutrophils were stimulated with TNF (10 ng/ml), QVD-Oph (50 μM) and SMAC mimetic (100 nM). Induced cell death was evaluated as above."}, "[4]": {"tested_on": "primary mouse bone marrow-derived macrophages (BMDMs)", "assay": "TNF+zVAD-induced necroptosis, CellTiter-Glo", "format": "cell-based", "details": "BMDM, read-out: IC50 blocking necroptosis", "procedure": "Mouse fibrosarcoma L929 cells (ATCC# CCL-1) and human monocytic U937 cells (ATCC# CRL-1593.2) were cultured in RPMI media supplemented with 10% heat-inactivated FBS, 100 U/ml penicillin and […] streptomycin. BMDM were prepared from C57BL/6 mice by differentiation with 10 ng/ml M-CSF (R&D Systems) for 7 days and cultured in DMEM medium supplemented with 10% heat-inactivated FBS, 100 U/ml penicillin, 100 μg/ml streptomycin and 0.25 μg/ml amphotericin. Primary human neutrophils were isolated from human blood following the standard method comprised of sequential sedimentation in dextran, density centrifugation in Ficoll–Hypaque and lysis of contaminating red blood cells.\nas §1"}, "FES/FPS": {"target": "T1, FES/FPS (Homo sapiens, UniProt P07332)", "T1 construct": "purchased Reaction Biology Corp", "T1 sequence (P07332 whole entry)": "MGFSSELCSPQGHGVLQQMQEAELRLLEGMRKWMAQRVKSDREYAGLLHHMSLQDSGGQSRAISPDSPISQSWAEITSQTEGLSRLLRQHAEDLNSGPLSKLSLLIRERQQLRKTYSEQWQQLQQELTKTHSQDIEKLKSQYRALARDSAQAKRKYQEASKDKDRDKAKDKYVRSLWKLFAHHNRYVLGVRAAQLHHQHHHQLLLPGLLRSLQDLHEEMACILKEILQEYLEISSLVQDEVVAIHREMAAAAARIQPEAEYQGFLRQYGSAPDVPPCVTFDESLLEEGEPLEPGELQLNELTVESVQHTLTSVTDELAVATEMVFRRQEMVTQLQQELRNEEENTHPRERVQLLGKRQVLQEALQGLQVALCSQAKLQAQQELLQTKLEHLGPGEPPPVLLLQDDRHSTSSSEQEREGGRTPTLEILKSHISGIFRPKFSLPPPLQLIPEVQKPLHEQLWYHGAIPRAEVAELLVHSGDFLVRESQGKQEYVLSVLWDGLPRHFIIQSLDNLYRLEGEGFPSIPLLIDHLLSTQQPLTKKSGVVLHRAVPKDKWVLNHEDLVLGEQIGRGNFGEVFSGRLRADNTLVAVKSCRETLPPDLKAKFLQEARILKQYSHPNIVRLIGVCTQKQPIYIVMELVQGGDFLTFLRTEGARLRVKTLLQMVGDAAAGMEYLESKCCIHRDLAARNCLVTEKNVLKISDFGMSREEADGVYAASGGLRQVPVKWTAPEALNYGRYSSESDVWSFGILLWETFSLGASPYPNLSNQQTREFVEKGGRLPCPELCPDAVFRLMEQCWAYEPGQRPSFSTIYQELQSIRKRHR", "assay": "Kinase selectivity, P33-radiolabeled assay", "format": "biochemical", "details": "10 μM ATP", "outline": "(§2)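 ATP at 10 μM; test article at 10 μM, single point, two replicates. Output is activity as % of DMSO.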"}, "MUSK": {"target": "T2, MUSK (Homo sapiens, UniProt O15146)", "T2 construct": "purchased Reaction Biology Corp", "T2 sequence (O15146 24-869)": "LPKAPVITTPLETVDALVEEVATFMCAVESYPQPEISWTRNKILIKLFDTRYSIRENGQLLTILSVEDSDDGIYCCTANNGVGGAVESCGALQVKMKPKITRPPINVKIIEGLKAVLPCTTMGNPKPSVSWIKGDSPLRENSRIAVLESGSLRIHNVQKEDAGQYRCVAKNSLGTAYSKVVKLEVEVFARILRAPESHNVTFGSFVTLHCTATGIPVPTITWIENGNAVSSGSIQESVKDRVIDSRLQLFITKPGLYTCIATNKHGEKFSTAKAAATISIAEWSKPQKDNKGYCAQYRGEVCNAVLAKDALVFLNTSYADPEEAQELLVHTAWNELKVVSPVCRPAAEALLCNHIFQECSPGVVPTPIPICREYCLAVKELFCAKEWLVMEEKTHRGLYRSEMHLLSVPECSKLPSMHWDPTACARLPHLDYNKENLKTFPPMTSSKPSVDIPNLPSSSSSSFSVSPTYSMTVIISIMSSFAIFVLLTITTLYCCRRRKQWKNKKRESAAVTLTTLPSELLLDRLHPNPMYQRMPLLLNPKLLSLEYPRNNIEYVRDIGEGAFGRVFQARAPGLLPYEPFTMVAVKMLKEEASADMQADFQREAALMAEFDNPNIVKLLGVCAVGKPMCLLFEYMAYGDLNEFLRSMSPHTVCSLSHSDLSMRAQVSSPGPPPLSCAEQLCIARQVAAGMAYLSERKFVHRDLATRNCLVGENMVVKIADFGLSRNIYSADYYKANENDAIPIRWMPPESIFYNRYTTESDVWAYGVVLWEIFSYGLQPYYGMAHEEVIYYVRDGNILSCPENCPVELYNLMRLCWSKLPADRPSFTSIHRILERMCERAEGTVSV", "assay": "Kinase selectivity, P33-radiolabeled assay", "format": "biochemical", "details": "10 μM ATP", "outline": "as §2"}, "MLK1/MAP3K9": {"target": "T3, MLK1/MAP3K9 (Homo sapiens, UniProt P80192)", "T3 construct": "purchased Reaction Biology Corp", "T3 sequence (P80192 whole entry)": "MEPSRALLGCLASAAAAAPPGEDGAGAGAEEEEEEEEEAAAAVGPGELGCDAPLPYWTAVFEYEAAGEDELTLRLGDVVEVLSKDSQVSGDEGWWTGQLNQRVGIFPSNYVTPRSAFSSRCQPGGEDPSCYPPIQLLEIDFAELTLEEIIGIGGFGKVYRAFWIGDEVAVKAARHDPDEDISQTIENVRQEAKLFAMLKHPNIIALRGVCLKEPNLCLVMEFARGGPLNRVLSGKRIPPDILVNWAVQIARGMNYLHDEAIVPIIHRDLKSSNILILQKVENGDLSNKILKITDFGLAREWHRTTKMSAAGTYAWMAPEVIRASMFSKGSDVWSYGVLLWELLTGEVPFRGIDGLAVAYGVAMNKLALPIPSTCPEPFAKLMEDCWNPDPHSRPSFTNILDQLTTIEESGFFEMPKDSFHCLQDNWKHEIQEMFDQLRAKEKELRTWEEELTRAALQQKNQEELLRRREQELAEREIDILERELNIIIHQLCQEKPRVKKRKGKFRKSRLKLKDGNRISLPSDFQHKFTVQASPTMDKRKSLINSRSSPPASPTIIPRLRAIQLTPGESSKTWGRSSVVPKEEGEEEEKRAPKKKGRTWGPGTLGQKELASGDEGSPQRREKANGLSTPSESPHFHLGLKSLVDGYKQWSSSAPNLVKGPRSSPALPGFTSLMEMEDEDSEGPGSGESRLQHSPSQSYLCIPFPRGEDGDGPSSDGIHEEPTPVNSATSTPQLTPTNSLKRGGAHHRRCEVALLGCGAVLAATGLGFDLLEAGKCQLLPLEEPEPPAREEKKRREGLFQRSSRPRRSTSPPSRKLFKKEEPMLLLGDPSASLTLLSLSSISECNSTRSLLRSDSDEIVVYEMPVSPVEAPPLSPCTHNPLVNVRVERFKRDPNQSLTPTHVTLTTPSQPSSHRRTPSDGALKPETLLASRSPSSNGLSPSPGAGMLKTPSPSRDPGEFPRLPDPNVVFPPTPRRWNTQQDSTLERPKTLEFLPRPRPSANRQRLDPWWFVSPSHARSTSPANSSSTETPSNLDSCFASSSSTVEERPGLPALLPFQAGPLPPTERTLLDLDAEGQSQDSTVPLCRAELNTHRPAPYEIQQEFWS", "assay": "Kinase selectivity, P33-radiolabeled assay", "format": "biochemical", "details": "10 μM ATP", "outline": "as §2"}, "[5]": {"details": "read-out: % Enzyme Activity (relative to DMSO controls) AVG"}, "[6]": {"details": "read-out: % Enzyme Activity (relative to DMSO controls) Data 1"}, "[7]": {"details": "read-out: % Enzyme Activity (relative to DMSO controls) Data 2"}}, "note": "Entries after “also recorded” stand apart in the source; their conditions may differ. Where two headings read alike, the source gives them in different places.", "data": [{"smiles": "CC(C)(C)C(=O)N1N=CC[C@H]1c1ccccc1", "note": "[GSK′963]", "values": [{"measurement": "apparent half-life", "setting": "[1]", "result": "greater than that for Nec-1"}, {"measurement": "effect on TNF+CHX-stimulated apoptosis", "setting": "BMDM [2]", "result": "no measurable effects; also recorded: no effect"}, {"measurement": "effect on TNF-induced NFκB activation", "setting": "BMDM [3]", "result": "no measurable effects; also recorded: no effect"}, {"measurement": "IC50", "setting": "human and murine cells", "result": "1 to 4", "unit": "nM"}, {"measurement": "IC50", "setting": "[4]", "result": 3, "unit": "nM"}, {"measurement": "remaining activity at 10 µM", "setting": "FES/FPS; [5]", "result": 91.3, "unit": "%"}, {"measurement": "remaining activity at 10 µM", "setting": "FES/FPS; [6]", "result": 93.2, "unit": "%"}, {"measurement": "remaining activity at 10 µM", "setting": "FES/FPS; [7]", "result": 89.5, "unit": "%"}, {"measurement": "remaining activity at 10 µM", "setting": "MUSK; [5]", "result": 99.9, "unit": "%"}, {"measurement": "remaining activity at 10 µM", "setting": "MUSK; [6]", "result": 99.2, "unit": "%"}, {"measurement": "remaining activity at 10 µM", "setting": "MUSK; [7]", "result": 100, "unit": "%"}, {"measurement": "remaining activity at 10 µM", "setting": "MLK1/MAP3K9; [5]", "result": 110, "unit": "%"}, {"measurement": "remaining activity at 10 µM", "setting": "MLK1/MAP3K9; [6]", "result": 108, "unit": "%"}, {"measurement": "remaining activity at 10 µM", "setting": "MLK1/MAP3K9; [7]", "result": 112, "unit": "%"}]}]}
